# From patent EP0223385B1, “8-Azabicyclo[3,2,1]octane and 9-azabicyclo[3,3,1]nonane derivatives” (BEECHAM GROUP PLC, priority 1985, dated 1987)
# Counter-ions that a name gives are not always drawn.
# Tested on: von Bezold-Jarisch reflex evoked by 5-HT
# Assay: Antagonism of the von Bezold-Jarisch reflex evoked by 5-HT in the anaesthetised rat
# Format: in vivo
# Settings: iv, anaesthetised male rats, compounds given intravenously, dose reducing the 5-HT-evoked (usually 6µg/kg i.v.) heart rate response to 50% of control, read-out: ED₅₀
# Method: The compounds were evaluated for antagonism of the von Bezold-Jarisch reflex evoked by 5-HT in the anaesthetised rat according to the following method:
# Male rats 250-350g, were anaesthetised with urethane (1.25g/kg intraperitoneally) and blood pressure and heart rate recorded as described by Fozard J.R. et al., J. Cardiovasc. Pharmacol. 2, 229-245 (1980). A submaximal dose of 5-HT (usually 6µg/kg) was given repeatedly by the intravenous route and changes in heart rate quantified. Compounds were given intravenously and the concentration required to reduce the 5 HT-evoked response to 50% of the control response (ED₅₀) was then determined.
row,SMILES,ED50 [µg/kg]
1,"CN1[C@@H]2CC[C@H]1C[C@@H](OC(=O)c1nn(C)c3ccccc13)C2 [Compound 1, 1-Methyl-3-indazolecarboxylic acid (endo-8-methyl-8-azabicyclo[3,2,1]oct-3-yl)ester monohydrochloride]",1.4
2,"CN1[C@@H]2CCC[C@H]1C[C@@H](NC(=O)c1nn(C)c3ccccc13)C2 [Compound 2, N-(Endo-9-methyl-9-azabicyclo[3,3,1]non-3-yl)-1-methylindazole-3-carboxamide monohydrochloride]",0.7
